One data set has as its system rats. Briefly: Forced swimming test (antidepressant activity, immobility duration). The format is in vivo, rat. From the text:
Antidepressant effect of estradiol was recently reported in studies using ER β KO mice model. In addition, ER β localization in dorsal raphe nucleus area in rat has been described. The gold standard test for antidepressant potency of compound consist in the forced swimming test, in this experiment antidepressants could be distinguished from psychostimulants which decreased immobility at doses which increased general activity. In order to investigate the putative antidepressant potency of the compounds reported here, the forced swimming test was performed according to the following design. The animals were housed six per cage under standard colony conditions, with a 12 h light/dark cycle and ad libitum food and water. They were allowed to acclimatize to the colony for at least 7 days prior to any experimentation. For subcutaneous administration, the compound of Example 23 was dissolved in olive oil and diluted to the desired concentration on the day of administration. For positive control, intraperitoneal (i.p.) injection of desipramine was done. Desipramine was dissolved in double-distilled water (10 mg/kg). The experiments were conducted 30 min after the positive control drug treatment (only for desipramine treatment). Other compounds, ie: estradiol and the compound of Example 23 were daily injected subcutaneously in rats, during a 7 days period. Acquisition were performed on day 8 (24 h after the last administration of items) and day 9 (48 h after estradiol or compound 23 administration), respectively. Data acquired 24 hours after the last administration consisted in the “naïve animal group”, these animals had never been previously tested in the device. Data acquired 48 hours after a last administration of compounds consisted in “trained animal group”.
On the 8th, the forced swim test was performed. This study was carried out in rats according to the methods described by Porsolt (Eur. J. Pharm., 1978). Briefly, rats were placed individually in glass cylinders (height: 40 cm, diameter: 18 cm) containing 25 cm of water at 25° C. Ten minutes later, rats were removed and dried before being returned to their home cages. The animals were replaced in the cylinders 24 h later, and the procedure was repeated, and a 10-min observation period was recorded.

The subject of data set [1] is human endometrial adenocarcinoma Ishikawa cells. Nature of the data set: Estrogenic and anti-estrogenic activities in vitro: induction of alkaline phosphatase (APase) activity. The format is cell-based. Conditions: for EC50: Homo sapiens, Ishikawa, 96 h, compound alone, four days, ND = not detected, read-out: Estrogenic activity EC50 (nM) ± S.E.M; for estrogenic effect in alkaline phosphatase activity in the Ishikawa cell model: in words. On the procedure:
The estrogenic and anti-estrogenic potentials of new compounds were evaluated using the induction of alkaline phosphatase (APase) activity, an estrogen specific response in human endometrial adenocarcinoma Ishikawa cells (Botella J., J Steroid Biochem Molec Biol, 1995, 55: 77-84; Littlefield et al., Endocrinology, 1990, 127: 2757-2762).
Ishikawa cells were routinely grown as monolayers in Dulbecco's Modified Eagle's medium (DMEM) containing 4 mM Glutamax I and supplemented with 10% of decomplemented fetal calf serum (dFCS) and antibiotics. They were maintained in a humidified atmosphere of 5% CO2 and 95% air, at 37±0.1° C. Stocks were performed once a week to maintain continuous exponential growth.
For studies, Ishikawa cells were plated into 96-well microplates. The next day, the medium was changed to a phenol red-free DMEM containing 5% dFCS stripped of endogenous estrogens by dextran coated charcoal treatment.
At the end of the incubation period, APase activity was assayed by a method involving the hydrolysis of p-nitrophenyl phosphate to p-nitrophenol at pH 9.8 and spectrophotometric determination of the product at 405 nm.
In brief, the microplates were first rinsed twice with cold phosphate buffered solution and then placed at −80° C. for at least 15 minutes. After thawing at room temperature for 5-10 minutes, the plates were put on ice and 50 μl ice-cold solution containing 5 mM p-nitrophenyl phosphate was added to each well. The plates were warmed to room temperature to allow for the development of the enzymatic reaction (t0). After a 15 to 60 minute incubation period, the intensity of the yellow color generated by the production of p-nitrophenol was measured into each well at 405 nm using a microplate reader (Wallac, model 1420 Victor^2). […] Sigmoidal dose-response curves were plotted and EC50 (estrogenic effect) and IC50 (anti-estrogenic effect) values were calculated for each compound.

Data set [2] concerns human breast cancer cell line MCF-7. Nature of the data set: Proliferative activity in vitro (ATP luminescence, 6 days). The format is cell-based. Conditions: Homo sapiens, MCF7, 144 h; for EC50: read-out: Cell proliferation EC50 (nM) ± S.E.M; for activity at 1 µM: MCF-7, 10^−6 M, read-out: Effect at 10^−6 M (% of control); for activity at 1 µM / activity at 0.01 µM: six days; for activity at 0.01 µM: MCF-7, 10^−8 M, read-out: Effect at 10^−8 M (% of control). The procedure:
The proliferative effect of the compounds of the invention was evaluated on human breast cancer cell line MCF-7 by measuring the number of viable cells after 6 days of treatment.
MCF-7 cells were routinely cultured as monolayers in Dulbecco's modified Eagle's medium (DMEM) containing 4 mM Glutamax and 4.5 g/l glucose and supplemented with 5% (v/v) decomplemented fetal calf serum (dFCS) and antibiotics.
Cells were plated at 2.10^6 cells/75 cm^2 flasks and incubated at 37° C. in a humidified atmosphere containing 5% CO2. They were passaged once weekly to maintain continuous exponential growth. Forty eight hours before the start of an experiment, near-confluent cells were changed to a phenol red free DMEM containing 5% steroid-stripped dFCS by dextran coated charcoal treatment (DCC-DMEM). On the day of the experiment, cells were harvested by brief exposure to trypsin and plated in DCC-DMEM in 96-well microplates at a density of 4.10^3 cells/well. The next day, the medium was renewed and test compounds, diluted appropriately in estrogen-free DMEM, were added and incubated for six days. […] At the end of the incubation period, cell proliferation was evaluated by quantitation of the cellular ATP content which signals the presence of metabolically active cells.
The assay, based on the ATP-dependent luciferase reaction, enables generation of a luminescent signal proportional to the amount of ATP present. As there is a linear relationship between the amount of ATP and the number of viable cells present in culture, the luminescent signal allowed to precisely evaluate cell proliferation (Crouch, S. P. M. et al. J. Immunol. Meth., 1993, 160, 81; Kangas, L. et al. Med. Biol. 1984, 62, 338; Petty, R. D. et al. J. Biolum. Chemilum. 1995, 10, 29).
In brief, the microplates were inverted to discard the culture medium and 100 μl of fresh medium was added into each well. The microplates were equilibrated at room temperature for approximately 30 minutes. 100 μl of luciferase reagent was added into each well and contents were mixed for 2 minutes to induce cell lysis. The plates were incubated at room temperature for 10 minutes to stabilize luminescence signal.
Luminescence was recorded using a microplate reader (Wallac, model 1420 Victor^2) and results were expressed as percentage of the control luminescence. Sigmoidal dose-response curves were plotted and EC50 values were calculated for each compound in order to evaluate their proliferative potency.

Another data set has as its system Prepubescent female rats. Nature of the data set: Estrogenic / uterotrophic activity in vivo (uterus wet weight). Also noted: species or system rat. Conditions: Rattus norvegicus, po, 72 h, orally 3 mg/rat/day for 3 days, read-out: % stimulation vs vehicle (uterus weight). The procedure:
Prepubescent female rats were orally treated at 3 mg/rat/day for 3 days. On the day following the last treatment, uteri were removed and wet weights were recorded.
The results are expressed as % of stimulation of uterus weight in comparison with vehicles. […]
Prepubescent female rats were orally treated with 0.3; 1; 3 or 10 mg/rat/day for 3 days. On the day following the last treatment, uteri were removed and wet weights were recorded.

The next data set has as its system ovariectomized rats. Nature of the data set: Hot flush model in vivo: tail skin temperature, uteri and body weight. Conditions: 3 mg/rat/day.
In data set [3] the target is T1, purified full-length recombinant human ERα (Homo sapiens, UniProt P03372).
T1 sequence (P03372 1-595): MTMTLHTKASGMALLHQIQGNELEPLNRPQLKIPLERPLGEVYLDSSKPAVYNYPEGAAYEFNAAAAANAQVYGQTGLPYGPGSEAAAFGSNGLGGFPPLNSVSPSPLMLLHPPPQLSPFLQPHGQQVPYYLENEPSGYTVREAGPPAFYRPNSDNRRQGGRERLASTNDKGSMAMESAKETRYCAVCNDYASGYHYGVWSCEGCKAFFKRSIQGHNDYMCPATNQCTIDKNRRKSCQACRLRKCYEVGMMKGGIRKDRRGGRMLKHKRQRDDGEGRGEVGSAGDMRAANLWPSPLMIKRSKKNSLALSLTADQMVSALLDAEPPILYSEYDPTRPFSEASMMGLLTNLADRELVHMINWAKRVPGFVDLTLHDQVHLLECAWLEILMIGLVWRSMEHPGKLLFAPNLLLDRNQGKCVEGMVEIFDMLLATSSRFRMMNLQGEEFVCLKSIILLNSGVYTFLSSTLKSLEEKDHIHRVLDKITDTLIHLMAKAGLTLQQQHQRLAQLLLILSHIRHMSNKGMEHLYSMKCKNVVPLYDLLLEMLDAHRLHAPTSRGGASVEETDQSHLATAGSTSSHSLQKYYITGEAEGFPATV
Nature of the data set: Estrogen receptor α competitive radiometric binding assay ([3H]-E2). Conditions: for RBA (%) Mean ± S.E.M, ER α: ratio of IC50s of E2 and competitor, E2 set at 100%.
Method: (§1) Relative binding affinities (RBA) were determined by competitive radiometric binding assays, using purified full-length recombinant human ERα and ERβ (PanVera, Madison, Wis.). […] After shaking for a few seconds and centrifugation at 1500 g and 4° C. for 10 minutes, 150 μl/well of Optiphase ‘Super Mix’ scintillation liquid was mixed with 50 μl of supernatant of each sample and the radioactivity was measured in a MicroBeta counter (Wallac, Turku, Finland). Data were evaluated by a sigmoidal dose-response curve (Prism, GraphPad Software Inc.) to estimate the concentration of competitor at half-maximal specific binding (IC50). […] The selectivity for ERα and ERβ was obtained from the ratio R of the IC50 for ERα to the IC50 for ERβ for each test compound.

Data set [4] addresses purified full-length recombinant human ERβ (Homo sapiens, UniProt Q92731). Nature of the data set: Estrogen receptor β competitive radiometric binding assay ([3H]-E2). Conditions: for RBA (%) Mean ± S.E.M, ER β: ratio of IC50s of E2 and competitor, E2 set at 100%; for R (IC50s) αβ: ratio of the IC50 for ERα to the IC50 for ERβ; for selectivity for the human recombinant estrogen receptor β: in words.
Method: as §1

One may read the melting point as the temperature of the solid-liquid transition. By IC50 is commonly meant the point on the concentration scale where inhibition reaches its midpoint.

Each structure is given as a SMILES string. Where two headings read alike, the source gives them in different places.

Chain of purified full-length recombinant human ERβ (Q92731 whole entry): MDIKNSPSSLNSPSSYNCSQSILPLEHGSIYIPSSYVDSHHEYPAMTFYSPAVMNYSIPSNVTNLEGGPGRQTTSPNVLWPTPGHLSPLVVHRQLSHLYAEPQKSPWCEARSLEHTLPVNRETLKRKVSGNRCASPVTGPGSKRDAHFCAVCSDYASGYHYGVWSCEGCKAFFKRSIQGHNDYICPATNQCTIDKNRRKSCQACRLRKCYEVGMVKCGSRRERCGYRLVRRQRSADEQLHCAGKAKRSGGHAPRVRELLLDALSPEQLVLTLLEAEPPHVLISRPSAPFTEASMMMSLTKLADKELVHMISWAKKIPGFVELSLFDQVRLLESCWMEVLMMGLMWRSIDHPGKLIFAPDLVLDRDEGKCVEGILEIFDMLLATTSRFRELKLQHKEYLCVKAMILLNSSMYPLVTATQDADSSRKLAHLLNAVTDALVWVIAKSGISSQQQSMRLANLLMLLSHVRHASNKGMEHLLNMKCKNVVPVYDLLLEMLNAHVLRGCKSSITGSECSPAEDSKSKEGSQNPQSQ

Turning to `CNCCCN1c2ccccc2CCc2ccccc21` [desipramine, reference compound], the “immobility duration, Trained animals” value in the data set with rats (dosage 30 (mg/rat/day) as in table, i.p., 30 min before test, 10 minutes test) came out at 2.6 ± 1.5 s.

`C[C@]12CC[C@@H]3c4ccc(O)cc4CC[C@H]3[C@@H]1CC[C@@H]2O` [Example E2, 17β-estradiol, reference compound]: in data set [1], the EC50 was found to be 0.1 ± 0.05 nM. Besides, in data set [2], the EC50 turned out to be 0.01 nM, the activity at 1 µM amounted to 205% and the activity at 0.01 µM was 212%. For the same molecule, in the data set on Prepubescent female rats (Table 4), the change in vivo at 3 mg is 526%. Also, the change in vivo at 3 mg in the data set on Prepubescent female rats (Table 5) worked out at 333%. The “immobility duration, Naïve animals” value in the data set on rats (0.007 mg/rat/day s.c. 7 days, 24 h after last administration, 10 minutes test) is 22.5 ± 7.1 s. For the same molecule, in the data set with rats (0.007 mg/rat/day s.c. 7 days, 48 h after last administration, 10 minutes test), the “immobility duration, Trained animals” value worked out at 79.2 ± 23.0 s. For the same molecule, the antidepressor potency entry with rats (24 h and 48 h after administration, in words) was “confirmation of the antidepressor potency”. For the same molecule, in the data set on ovariectomized rats, the “TST Variation day 1 vs day 0” value is listed as −4.8 C. °, the “TST Variation day 4 vs day 0” value is given as −3.5 C. ° and the “TST Variation day 7 vs day 0” value is −5.6 C. °. In the data set with ovariectomized rats (after one week treatment), the “Body weights (% increase vs vehicle)” value is −10% and the “Uteri weight (% increase vs vehicle)” value was 273%.

`Oc1ccc2c(C3CCCCC3)n[nH]c2c1` [Ex 24, 3-cyclohexyl-1H-indazol-6-ol] displayed a melting point of 147 °C. Besides, the EC50 in data set [1] was 136.3 ± 1.2 nM. In data set [2], the activity at 1 µM is 143% and the activity at 0.01 µM amounted to 89.9%. Besides, in data set [2] (MCF-7, six days), the EC50 came out at 18.5 ± 1.8 nM. For the same molecule, in the data set on Prepubescent female rats (Table 4), the change in vivo at 3 mg stood at 101%. Also, in data set [3], the IC50 stood at 159 ± 23.7 nM and the “RBA (%) Mean ± S.E.M, ER α” value is 1.2 ± 0.2%. In data set [4], the IC50 came to 10.2 ± 0.9 nM; the “RBA (%) Mean ± S.E.M, ER β” value was determined as 24.6 ± 4.3%; the “R (IC50s) αβ” value came to 15.6.

In the case of `N#CC(Cc1ccc(F)cc1)c1noc2cc(O)ccc12` (stereo not shown) [Ex 84, 2-(6-hydroxy-1,2-benzisoxazol-3-yl)-3-(4-fluorophenyl) propanenitrile], the melting point turned out to be 152 °C. In data set [1], the EC50 is 322 ± 20 nM and the “estrogenic effect in alkaline phosphatase activity in the Ishikawa cell model” value was “weak estrogenic effect”. In addition, in data set [2], the activity at 1 µM was 286% and the activity at 0.01 µM was 97%. The EC50 in data set [2] (MCF-7, six days) was determined as 77.9 ± 4.1 nM. For the same molecule, the change in vivo at 3 mg in the data set on Prepubescent female rats (Table 4) is 24%. For the same molecule, in data set [3], the IC50 came to 2300 ± 446 nM and the “RBA (%) Mean ± S.E.M, ER α” value came out at 0.1 ± 0.03%. Besides, in data set [4], the IC50 amounted to 123 ± 25.9 nM; the “selectivity for the human recombinant estrogen receptor β” value is on record as “marked selectivity”; the “RBA (%) Mean ± S.E.M, ER β” value was found to be 2.5 ± 0.4%; the “R (IC50s) αβ” value was determined as 18.7.

In the case of `Oc1ccc2c(C3CCCCC3)noc2c1` [Ex 66, 3-cyclohexyl-1,2-benzisoxazol-6-ol], the melting point is 181 °C. Further, in data set [1], the EC50 stood at 221 ± 14 nM and the “estrogenic effect in alkaline phosphatase activity in the Ishikawa cell model” value was “weak estrogenic effect”. For the same molecule, in data set [2], the activity at 1 µM came to 149% and the activity at 0.01 µM was 100%. Also, the EC50 in data set [2] (MCF-7, six days) turned out to be 25.4 ± 4 nM. Besides, the change in vivo at 3 mg in the data set on Prepubescent female rats (Table 4) turned out to be 31%. Further, in data set [3], the IC50 worked out at 260 ± 40.1 nM and the “RBA (%) Mean ± S.E.M, ER α” value worked out at 1.1 ± 0.2%. In data set [4], the IC50 was determined as 44.6 ± 7.7 nM; the “selectivity for the human recombinant estrogen receptor β” value is recorded as “marked selectivity”; the “RBA (%) Mean ± S.E.M, ER β” value amounted to 9.4 ± 3.1%; the “R (IC50s) αβ” value was found to be 5.8.

The record behind these values is US7977364B2, “Indazoles, benzisoxazoles and benzisothiazoles and their use as estrogenic agents” (Laboratoire Thermamex, priority 2004, dated 2011).
